Reference: US7396837B2, “Antitumoral analogs of lamellarins” (Pharma Mar, S.A.U., priority 2002, dated 2008)

Tests used:
Format in all cases: cell-based
SK-MEL-28 = test: SRB colorimetric cell growth inhibition assay, SK-MEL-28; details: Homo sapiens, SK-MEL-28, MEL-28; for GI50: GI=growth inhibition, read-out: GI50 MEL-28; for CC50: LC=cell killing (cytotoxic effect), read-out: LC50 MEL-28; for IC (TGI): TGI=total growth inhibition (cytostatic effect), read-out: TGI MEL-28
In short: (§1)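 After uninterrupted treatment, cultures are fixed and stained with sulforhodamine B, and absorbance reflects cell growth and viability. Each value represents the average of triplicate wells with SD.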

A-549 = test: SRB colorimetric cell growth inhibition assay, A-549; details: Homo sapiens, A549, A-549; for GI50: GI=growth inhibition, read-out: GI50 A-549; for CC50: LC=cell killing (cytotoxic effect), read-out: LC50 A-549; for IC (TGI): TGI=total growth inhibition (cytostatic effect), read-out: TGI A-549
In short: as §1

SK-BR-3 = test: SRB colorimetric cell growth inhibition assay, SK-BR-3; details: Homo sapiens, SK-BR-3, SK-BR-3; for GI50: GI=growth inhibition, read-out: GI50 SK-BR-3; for CC50: LC=cell killing (cytotoxic effect), read-out: LC50 SK-BR-3; for IC (TGI): TGI=total growth inhibition (cytostatic effect), read-out: TGI SK-BR-3
In short: as §1

LNCaP = test: SRB colorimetric cell growth inhibition assay, LNCaP; details: Homo sapiens, LNCaP, LN-caP; for GI50: GI=growth inhibition, read-out: GI50 LN-caP; for CC50: LC=cell killing (cytotoxic effect), read-out: LC50 LN-caP; for IC (TGI): TGI=total growth inhibition (cytostatic effect), read-out: TGI LN-caP
In short: as §1

HeLa-APL = test: SRB colorimetric cell growth inhibition assay, HeLa-APL (aplidine resistant); details: Homo sapiens, HELA-APL; for GI50: GI=growth inhibition, read-out: GI50 HELA-APL; for CC50: LC=cell killing (cytotoxic effect), read-out: LC50 HELA-APL; for IC (TGI): TGI=total growth inhibition (cytostatic effect), read-out: TGI HELA-APL
In short: as §1

LoVo = test: SRB colorimetric cell growth inhibition assay, LoVo; details: Homo sapiens, LoVo; for GI50: GI=growth inhibition, read-out: GI50 LOVO; for CC50: LC=cell killing (cytotoxic effect), read-out: LC50 LOVO; for IC (TGI): TGI=total growth inhibition (cytostatic effect), read-out: TGI LOVO
In short: as §1

DU-145 = test: SRB colorimetric cell growth inhibition assay, DU-145; details: Homo sapiens, DU-145, DU-145; for GI50: GI=growth inhibition, read-out: GI50 DU-145; for CC50: LC=cell killing (cytotoxic effect), read-out: LC50 DU-145; for IC (TGI): TGI=total growth inhibition (cytostatic effect), read-out: TGI DU-145
In short: as §1

LoVo-Dox = test: SRB colorimetric cell growth inhibition assay, LoVo-Dox (MDR); details: Homo sapiens, LOVO-DOX; for GI50: GI=growth inhibition, read-out: GI50 LOVO-DOX; for CC50: LC=cell killing (cytotoxic effect), read-out: LC50 LOVO-DOX; for IC (TGI): TGI=total growth inhibition (cytostatic effect), read-out: TGI LOVO-DOX
In short: as §1

HT-29 = test: SRB colorimetric cell growth inhibition assay, HT-29; details: Homo sapiens, HT-29, HT-29; for GI50: GI=growth inhibition, read-out: GI50 HT-29; for CC50: LC=cell killing (cytotoxic effect), read-out: LC50 HT-29; for IC (TGI): TGI=total growth inhibition (cytostatic effect), read-out: TGI HT-29
In short: as §1

K-562 = test: SRB colorimetric cell growth inhibition assay, K-562; details: Homo sapiens, K562, K-562; for GI50: GI=growth inhibition, read-out: GI50 K-562; for CC50: LC=cell killing (cytotoxic effect), read-out: LC50 K-562; for IC (TGI): TGI=total growth inhibition (cytostatic effect), read-out: TGI K-562
In short: as §1

HeLa = test: SRB colorimetric cell growth inhibition assay, HeLa; details: Homo sapiens, HeLa; for GI50: GI=growth inhibition, read-out: GI50 HELA; for CC50: LC=cell killing (cytotoxic effect), read-out: LC50 HELA; for IC (TGI): TGI=total growth inhibition (cytostatic effect), read-out: TGI HELA
In short: as §1

IGROV = test: SRB colorimetric cell growth inhibition assay, IGROV; details: Homo sapiens, IGROV; for GI50: GI=growth inhibition, read-out: GI50 IGROV; for CC50: LC=cell killing (cytotoxic effect), read-out: LC50 IGROV; for IC (TGI): TGI=total growth inhibition (cytostatic effect), read-out: TGI IGROV
In short: as §1

IGROV-ET = test: SRB colorimetric cell growth inhibition assay, IGROV-ET (ET-743 resistant); details: Homo sapiens, IGROV-ET; for GI50: GI=growth inhibition, read-out: GI50 IGROV-ET; for CC50: LC=cell killing (cytotoxic effect), read-out: LC50 IGROV-ET; for IC (TGI): TGI=total growth inhibition (cytostatic effect), read-out: TGI IGROV-ET
In short: as §1

PANC-1 = test: SRB colorimetric cell growth inhibition assay, PANC-1; details: Homo sapiens, PANC-1, PANC-1; for GI50: GI=growth inhibition, read-out: GI50 PANC-1; for CC50: LC=cell killing (cytotoxic effect), read-out: LC50 PANC-1; for IC (TGI): TGI=total growth inhibition (cytostatic effect), read-out: TGI PANC-1
In short: as §1

Compound: COc1cc(-c2c3c4cc(OC)c(OC(C)C)cc4oc(=O)c3n3ccc4c([N+](=O)[O-])cccc4c23)ccc1OC(C)C [Compound 54]
- GI50 (SK-MEL-28): 1.53 µM
- CC50 (SK-MEL-28): 17.2 µM
- IC (TGI) (SK-MEL-28): 5.7 µM
- GI50 (A-549): 2.85 µM
- CC50 (A-549): 17.2 µM
- IC (TGI) (A-549): 15.1 µM
- GI50 (SK-BR-3): 1.05 µM
- CC50 (SK-BR-3): 17.2 µM
- IC (TGI) (SK-BR-3): 4.31 µM
- GI50 (LNCaP): 1.71 µM
- CC50 (LNCaP): 11.1 µM
- IC (TGI) (LNCaP): 4.34 µM
- GI50 (HeLa-APL): 3.83 µM
- CC50 (HeLa-APL): 17.2 µM
- IC (TGI) (HeLa-APL): 17.2 µM
- GI50 (LoVo): 3.4 µM
- CC50 (LoVo): 17.2 µM
- IC (TGI) (LoVo): 8.94 µM
- GI50 (DU-145): 2.88 µM
- CC50 (DU-145): 17.2 µM
- IC (TGI) (DU-145): 7.16 µM
- GI50 (LoVo-Dox): 12.5 µM
- CC50 (LoVo-Dox): 17.2 µM
- IC (TGI) (LoVo-Dox): 17.2 µM
- GI50 (HT-29): 1.52 µM
- CC50 (HT-29): 17.2 µM
- IC (TGI) (HT-29): 17.2 µM
- GI50 (K-562): 3.76 µM
- CC50 (K-562): 17.2 µM
- IC (TGI) (K-562): 14.2 µM
- GI50 (HeLa): 0.616 µM
- CC50 (HeLa): 17.2 µM
- IC (TGI) (HeLa): 2.71 µM
- GI50 (IGROV): 0.884 µM
- CC50 (IGROV): 13.3 µM
- IC (TGI) (IGROV): 4.02 µM
- GI50 (IGROV-ET): 6.64 µM
- CC50 (IGROV-ET): 17.2 µM
- IC (TGI) (IGROV-ET): 17.2 µM
- GI50 (PANC-1): 0.711 µM
- CC50 (PANC-1): 17.2 µM
- IC (TGI) (PANC-1): 2.59 µM

Compound: COc1cc(-c2c3n(c4c(=O)oc5cc(N)c(OC)cc5c24)CCc2cc(OC)c(OC)cc2-3)ccc1N [Compound 57]
- GI50 (SK-MEL-28): 1.68 µM
- CC50 (SK-MEL-28): 19.5 µM
- IC (TGI) (SK-MEL-28): 12.6 µM
- GI50 (A-549): 1.29 µM
- CC50 (A-549): 19.5 µM
- IC (TGI) (A-549): 19.5 µM
- GI50 (SK-BR-3): 0.317 µM
- CC50 (SK-BR-3): 19.5 µM
- IC (TGI) (SK-BR-3): 5.24 µM
- GI50 (LNCaP): 2.16 µM
- CC50 (LNCaP): 13.9 µM
- IC (TGI) (LNCaP): 5.47 µM
- GI50 (HeLa-APL): 3.68 µM
- CC50 (HeLa-APL): 19.5 µM
- IC (TGI) (HeLa-APL): 11 µM
- GI50 (LoVo): 0.717 µM
- CC50 (LoVo): 19.5 µM
- IC (TGI) (LoVo): 5.3 µM
- GI50 (DU-145): 3.89 µM
- CC50 (DU-145): 19.5 µM
- IC (TGI) (DU-145): 12.2 µM
- GI50 (LoVo-Dox): 0.828 µM
- CC50 (LoVo-Dox): 19.5 µM
- IC (TGI) (LoVo-Dox): 6.91 µM
- GI50 (HT-29): 3.49 µM
- CC50 (HT-29): 19.5 µM
- IC (TGI) (HT-29): 19.5 µM
- GI50 (K-562): 2.69 µM
- CC50 (K-562): 19.5 µM
- IC (TGI) (K-562): 19.5 µM
- GI50 (HeLa): 0.685 µM
- CC50 (HeLa): 19.5 µM
- IC (TGI) (HeLa): 5.67 µM
- GI50 (IGROV): 0.847 µM
- CC50 (IGROV): 19.5 µM
- IC (TGI) (IGROV): 5.88 µM
- GI50 (IGROV-ET): 0.89 µM
- CC50 (IGROV-ET): 19.5 µM
- IC (TGI) (IGROV-ET): 6.43 µM
- GI50 (PANC-1): 0.611 µM
- CC50 (PANC-1): 19.5 µM
- IC (TGI) (PANC-1): 9.7 µM
